The source of these data is ChEMBL document CHEMBL1201862, “PubChem BioAssay data set” (2004).

Test systems include SK-MEL-2; NCI/ADR-RES; PC-3; HCT-15; MDA-N; HCT-116; NCI-H460; SK-MEL-28; HOP-62; MCF7; UO-31; OVCAR-3; UACC-257; RPMI-8226; Hs-578T; LOX IMVI; NCI-H522; MDA-MB-231; SF-295; TK-10.
What all share (assay): inhibition of tumour cell growth, NCI panel, 48 h

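Assay format: 96-well plates, 48-hour exposure. GI50 is the concentration that inhibits growth by half.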 The source made the active and inactive calls. Cut-off read from the data, not from the text of the source: active = GI50 up to about 1.1 µM and inactive = higher. Where only a bound is given, the exact number is not on record here.

As for `COC(=O)c1cc(NC(=O)Cn2c3ccccc3c3ccccc32)cn1C`, the GI50 was 47.9 µM (inactive) with SK-MEL-2; 30.3 µM (inactive) in the assay with NCI/ADR-RES; 31 µM (inactive) with PC-3; 92.7 µM in the assay on HCT-15; > 100 µM (inactive) in the assay with MDA-N; 46.2 µM (inactive) with HCT-116. Moreover, the GI50 is 57.5 µM (inactive) with NCI-H460; > 100 µM (inactive) with SK-MEL-28; 25.6 µM (inactive) with HOP-62; 59 µM (inactive) in the assay on MCF7; 25 µM (inactive) with UO-31; > 100 µM (inactive) in the assay on OVCAR-3. Moreover, the GI50 is 53.8 µM (inactive) in the assay with UACC-257; 19.5 µM (inactive) in the assay with RPMI-8226; 14.2 µM (inactive) in the assay on Hs-578T; 53.3 µM (inactive) with LOX IMVI; 28.3 µM (inactive) with NCI-H522; 20.1 µM (inactive) in the assay with MDA-MB-231. Further, the GI50 is 26.9 µM (inactive) with SF-295 and 49.7 µM (inactive) in the assay on TK-10.

As for `CCOC(=O)c1cn(CC)c2ccc3c(c2c1=O)S(=O)(=O)C=C3`, the GI50 in the assay on SK-MEL-2 is 52.5 µM (inactive); in the assay on NCI/ADR-RES, > 100 µM (inactive); with PC-3, > 100 µM (inactive); in the assay with HCT-15 it was greater than 100 µM; in the assay on MDA-N it was > 100 µM (inactive); in the assay with HCT-116, > 100 µM (inactive). The GI50 with NCI-H460 was > 100 µM (inactive); with SK-MEL-28, > 100 µM (inactive); in the assay with HOP-62, > 100 µM (inactive); in the assay on MCF7, > 100 µM (inactive); in the assay with UO-31 it was 60.1 µM (inactive); in the assay with OVCAR-3 it was > 100 µM (inactive). Further, the GI50 was > 100 µM (inactive) with UACC-257; > 100 µM (inactive) in the assay on RPMI-8226; 52.6 µM (inactive) with Hs-578T; > 100 µM (inactive) in the assay on LOX IMVI; > 100 µM (inactive) in the assay on NCI-H522; > 100 µM (inactive) in the assay on MDA-MB-231. The GI50 in the assay with SF-295 and in the assay on TK-10 was > 100 µM (inactive) in each case.

`O=C1C(=Cc2ccccc2[N+](=O)[O-])N=C(c2ccccc2)N1n1c(-c2ccccc2)nc2ccccc2c1=O`: the GI50 in the assay with SK-MEL-2 was 29.4 µM (inactive); in the assay on NCI/ADR-RES it was 23.2 µM (inactive); in the assay with PC-3, 27.3 µM (inactive); in the assay on HCT-15, 24.5 µM; with MDA-N, 36.4 µM (inactive); in the assay on HCT-116, 17 µM (inactive). The GI50 with NCI-H460 was 31.3 µM (inactive); in the assay on SK-MEL-28, 30.9 µM (inactive); with HOP-62, 28.6 µM (inactive); in the assay with MCF7, 17.5 µM (inactive); in the assay with UO-31 it was 32.4 µM (inactive); in the assay with OVCAR-3 it was 29 µM (inactive). Further, the GI50 is 24.8 µM (inactive) with UACC-257; 20.5 µM (inactive) in the assay with RPMI-8226; 20.6 µM (inactive) in the assay on Hs-578T; 29.4 µM (inactive) with LOX IMVI; 17 µM (inactive) in the assay with NCI-H522; 27.6 µM (inactive) in the assay with MDA-MB-231. Further, the figures for the GI50 in the assay with SF-295 and with TK-10 were 30.9 µM (inactive) and > 100 µM (inactive), respectively.
